The values below are quoted from earlier work in patent US20220142981A1, “APREMILAST LIPOPHILIC TOPICAL PHARMACEUTICAL COMPOSITIONS” (APRAMITHA INNOVATIONS PRIVATE LIMITED, priority 2019, published 2022).

SMILES strings stand for the structures.

On to `CCOc1cc([C@@H](CS(C)(=O)=O)N2C(=O)c3cccc(NC(C)=O)c3C2=O)ccc1OC` [Apremilast, N-[2-[(lS)-l-(3-ethoxy-4-methoxyphenyl)-2-(methylsulfonyl)ethyl]-l,3-dioxo-2,3-dihydro-lH-isoindol-4-yl]acetamide], for which the “solubility in polar solvents” value (polar solvents) is “minimal solubility”. Moreover, the solubility in water result (water) is on record as “insolubility”.
